Test results reported in US20100041089A1, “IMPROVED METHOD FOR DETECTING CHEMICAL […]” (priority 2006, published 2010).

Tested on: yeast genes (expressed mRNA)
Test: DNA chip measurement of expressed mRNA of yeast genes after culture with a toxic chemical substance
Format: cell-based, Saccharomyces cerevisiae S288C
Details: for level of expressed mRNA in the presence of chemical substance / level in the absence of chemical substance: cultured two hours with the chemical substance; for The level of expressed mRNA in the presence of chemical substance/The level of expressed mRNA in the absence of chemical substance: cultured two hours with substance
Method: Yeast (Saccharomyces cerevisiae S288C (a SUC2mal mel gap2 CUP1)) were cultured at 25° C. on YPD medium (yeast extract 1%, polypeptone 2%, glucose 2%). One of toxic chemical substances was added to the cell at logarithmic growth phase, and the cell was further cultured for two hours. Cell was cultured without any chemical substance in the same condition, and was used as a control. Concentrations of the chemical substances were defined to inhibit the growth of the yeast but not lead to death.
After the completion of cultivation, the culture was centrifuged to collect the cells. To the cells, sodium acetate buffer (50 mM sodium acetate, 10 mM EDTA, 1% SDS) was added, and the mixture was shaken at 65° C. for five minutes, followed by returning to room temperature, and obtaining the supernatant, which procedure was repeated two times. To the supernatant, ½ amount of a solution of phenol/chloroform (1:1) was added, and the mixture was centrifuged to give a supernatant, an equal amount of chloroform was added, and the mixture was centrifuged to give a supernatant. To the supernatant, an equal amount of isopropanol containing 0.3 M sodium acetate was added, and the mixture was allowed to stand at room temperature for 30 minutes, after which the mixture was centrifuged to give sediment of the whole RNAs. Seventy % ethanol was added to the sediment, and the mixture was again centrifuged to give sediment, which was then dried and dissolved in water. mRNA was isolated from the whole RNAs as followings. In view of the fact that a poly A chain is attached to the 3′ terminus of mRNA, a polynucleotide having a poly T structure which was immobilized on the surface of latex beads was used to trap the mRNA, and then the mRNA was washed and eluted with spine column (Oligotex-dT30<Super>mRNA Purification Kit, Takara). Reverse transcription of the mRNA was conducted with a reverse transcriptase (Super Script II Reverse Transcriptase; catalogue No. 18064-014, GibcoBRL) using fluorescence-labeled nucleotides to give cDNAs that were introduced with Cy3-dUTP or Cy5-dUTP during the reverse transcription.
The labeled cDNAs were dissolved in TE buffer (10 mM Tris-HCl/1 mM EDTA, pH 8.0), and the solution was dropped on the DNA chip containing the whole genes of yeast (DNA Chip Research Inc. Japan) so that the cDNAs were hybridized on the DNA chip at 65° C. for over 12 hours. The fluoresces intensity of the DNA chip was read with a scanner, and the ratio relative to the fluorescence intensity resulting from the absence of chemical substance was estimated as the following, which is shown in Tables 1 to 9.
In the Tables, “Intensity” indicated in the rightmost column is a value of the level of expressed mRNA of each gene in control cells as divided by the average level of the expressions of the whole genes. A gene of which mRNA level is lower in control, and is higher in cases of addition of chemical substance, is especially useful in the detection of toxic substances.
Here, when a ratio of an amount of mRNA expressed in the presence of the chemical substance to an amount of mRNA expressed in the absence of the chemical substance is two or more, then it is considered significant.

[Cl][Hg][Cl] [(3), HgCl2]
level of expressed mRNA in the presence of chemical substance / level in the absence of chemical substance (yeast gene YJL097W): 3.7 | The level of expressed mRNA in the presence of chemical substance/The level of expressed mRNA in the absence of chemical substance (yeast gene YJL151C): 3.2 | The level of expressed mRNA in the presence of chemical substance/The level of expressed mRNA in the absence of chemical substance (yeast gene YJL152W): 1.8 | The level of expressed mRNA in the presence of chemical substance/The level of expressed mRNA in the absence of chemical substance (yeast gene YJL161W): 1.5 | The level of expressed mRNA in the presence of chemical substance/The level of expressed mRNA in the absence of chemical substance (yeast gene YJL171C): 2.8 | The level of expressed mRNA in the presence of chemical substance/The level of expressed mRNA in the absence of chemical substance (yeast gene YJR008W): 1.2 | level of expressed mRNA in the presence of chemical substance / level in the absence of chemical substance (yeast gene YJR030C): 0.9 | The level of expressed mRNA in the presence of chemical substance/The level of expressed mRNA in the absence of chemical substance (yeast gene YJR054W): 0.3 | level of expressed mRNA in the presence of chemical substance / level in the absence of chemical substance (yeast gene YKL051W): 4.7 | The level of expressed mRNA in the presence of chemical substance/The level of expressed mRNA in the absence of chemical substance (yeast gene YKL071W): 5.4 | The level of expressed mRNA in the presence of chemical substance/The level of expressed mRNA in the absence of chemical substance (yeast gene YKL086W): 2.4 | level of expressed mRNA in the presence of chemical substance / level in the absence of chemical substance (yeast gene YKL097C): 0.6 | level of expressed mRNA in the presence of chemical substance / level in the absence of chemical substance (yeast gene YKL100C): 5.0 | The level of expressed mRNA in the presence of chemical substance/The level of expressed mRNA in the absence of chemical substance (yeast gene YKL151C): 1.7 | The level of expressed mRNA in the presence of chemical substance/The level of expressed mRNA in the absence of chemical substance (yeast gene YKL153W): 2.0 | The level of expressed mRNA in the presence of chemical substance/The level of expressed mRNA in the absence of chemical substance (yeast gene YKL195W): 0.4 | level of expressed mRNA in the presence of chemical substance / level in the absence of chemical substance (yeast gene YKR040C): 2.4 | The level of expressed mRNA in the presence of chemical substance/The level of expressed mRNA in the absence of chemical substance (yeast gene YKR091W): 0.9 | The level of expressed mRNA in the presence of chemical substance/The level of expressed mRNA in the absence of chemical substance (yeast gene YLR054C): 0.4 | The level of expressed mRNA in the presence of chemical substance/The level of expressed mRNA in the absence of chemical substance (yeast gene YLR149C): 3.4 | The level of expressed mRNA in the presence of chemical substance/The level of expressed mRNA in the absence of chemical substance (yeast gene YLR152C): 1.1 | The level of expressed mRNA in the presence of chemical substance/The level of expressed mRNA in the absence of chemical substance (yeast gene YLR194C): 1.3 | level of expressed mRNA in the presence of chemical substance / level in the absence of chemical substance (yeast gene YLR226W): 0.3 | The level of expressed mRNA in the presence of chemical substance/The level of expressed mRNA in the absence of chemical substance (yeast gene YLR324W): 0.9 | level of expressed mRNA in the presence of chemical substance / level in the absence of chemical substance (yeast gene YLR338W): 1.4 | The level of expressed mRNA in the presence of chemical substance/The level of expressed mRNA in the absence of chemical substance (yeast gene YLR350W): 3.2 | The level of expressed mRNA in the presence of chemical substance/The level of expressed mRNA in the absence of chemical substance (yeast gene YLR387C): 0.8 | level of expressed mRNA in the presence of chemical substance / level in the absence of chemical substance (yeast gene YLR392C): 0.8 | level of expressed mRNA in the presence of chemical substance / level in the absence of chemical substance (yeast gene YLR415C): 6.7 | level of expressed mRNA in the presence of chemical substance / level in the absence of chemical substance (yeast gene YLR427W): 0.2 | The level of expressed mRNA in the presence of chemical substance/The level of expressed mRNA in the absence of chemical substance (yeast gene YLR460C): 2.0 | level of expressed mRNA in the presence of chemical substance / level in the absence of chemical substance (yeast gene YML013W): 0.4 | level of expressed mRNA in the presence of chemical substance / level in the absence of chemical substance (yeast gene YML029W): 1.3 | level of expressed mRNA in the presence of chemical substance / level in the absence of chemical substance (yeast gene YML041C): 0.6 | level of expressed mRNA in the presence of chemical substance / level in the absence of chemical substance (yeast gene YML079W): 1.1 | The level of expressed mRNA in the presence of chemical substance/The level of expressed mRNA in the absence of chemical substance (yeast gene YML117W): 0.9 | The level of expressed mRNA in the presence of chemical substance/The level of expressed mRNA in the absence of chemical substance (yeast gene YMR009W): 0.5 | The level of expressed mRNA in the presence of chemical substance/The level of expressed mRNA in the absence of chemical substance (yeast gene YMR067C): 1.1 | level of expressed mRNA in the presence of chemical substance / level in the absence of chemical substance (yeast gene YMR068W): 0.8 | level of expressed mRNA in the presence of chemical substance / level in the absence of chemical substance (yeast gene YMR071C): 1.1 | The level of expressed mRNA in the presence of chemical substance/The level of expressed mRNA in the absence of chemical substance (yeast gene YMR090W): 2.3 | The level of expressed mRNA in the presence of chemical substance/The level of expressed mRNA in the absence of chemical substance (yeast gene YMR095C): 1.6 | The level of expressed mRNA in the presence of chemical substance/The level of expressed mRNA in the absence of chemical substance (yeast gene YMR097C): 0.7 | The level of expressed mRNA in the presence of chemical substance/The level of expressed mRNA in the absence of chemical substance (yeast gene YMR102C): 1.1 | The level of expressed mRNA in the presence of chemical substance/The level of expressed mRNA in the absence of chemical substance (yeast gene YMR107W): 1.7 | level of expressed mRNA in the presence of chemical substance / level in the absence of chemical substance (yeast gene YMR160W): 1.2 | The level of expressed mRNA in the presence of chemical substance/The level of expressed mRNA in the absence of chemical substance (yeast gene YMR180C): 1.0 | The level of expressed mRNA in the presence of chemical substance/The level of expressed mRNA in the absence of chemical substance (yeast gene YMR184W): 1.0 | The level of expressed mRNA in the presence of chemical substance/The level of expressed mRNA in the absence of chemical substance (yeast gene YMR191W): 1.9 | The level of expressed mRNA in the presence of chemical substance/The level of expressed mRNA in the absence of chemical substance (yeast gene YMR295C): 1.2 | The level of expressed mRNA in the presence of chemical substance/The level of expressed mRNA in the absence of chemical substance (yeast gene YMR316W): 1.1 | level of expressed mRNA in the presence of chemical substance / level in the absence of chemical substance (yeast gene YNL026W): 1.3 | The level of expressed mRNA in the presence of chemical substance/The level of expressed mRNA in the absence of chemical substance (yeast gene YNL044W): 2.3
